For six compounds, MIC results are on record in ChEMBL document CHEMBL3044883, “Synthesis, spectral, theoretical, and antimicrobial screening of some heterocyclic oximes” (2011).

What all share (type): functional
One experiment deals with Klebsiella pneumoniae. The experiment is described as follows: Antibacterial activity against Klebsiella pneumoniae after 24 hr by two fold serial dilution method.
The test system of another experiment is Rhizopus. In words: Antifungal activity against Rhizopus after 72 to 96 hr by two-fold serial dilution method.
The subject of another experiment is Aspergillus flavus. In words: Antifungal activity against Aspergillus flavus after 72 to 96 hr by two-foldserial dilution method.
The next experiment deals with Staphylococcus aureus. The experiment is described as follows: Antibacterial activity against Staphylococcus aureus after 24 hr by two fold serial dilution method.
The test system of a further experiment is Escherichia coli. The experiment is described as follows: Antibacterial activity against Escherichia coli after 24 hr by two-fold serial dilution method.
For another experiment, the system named is Aspergillus niger. The experiment is described as follows: Antifungal activity against Aspergillus niger after 72 to 96 hr by two-foldserial dilution method.
Another experiment has as its system Pseudomonas aeruginosa. In words: Antibacterial activity against Pseudomonas aeruginosa after 24 hr by two-fold serial dilution method.

In brackets after ≈: the same amount, converted by molar mass.

As to `CC1/C(=N\O)CC(c2ccco2)N(C=O)C1c1ccco1` (centres undefined), the MIC was 100 µg/mL (≈ 347 µM) in the experiment on Klebsiella pneumoniae; 50 µg/mL (≈ 173 µM) against Rhizopus; 50 µg/mL (≈ 173 µM) in the experiment with Aspergillus flavus; 100 µg/mL (≈ 347 µM) with Staphylococcus aureus; 50 µg/mL (≈ 173 µM) in the experiment with Escherichia coli; 25 µg/mL (≈ 86.7 µM) in the experiment on Aspergillus niger. This compound also returned an MIC in the experiment with Pseudomonas aeruginosa of 100 µg/mL (≈ 347 µM).
As for `CCC1/C(=N\O)CC(c2ccco2)N(C=O)C1c1ccco1` (centres undefined), the MIC in the experiment with Klebsiella pneumoniae is 50 µg/mL (≈ 165 µM); against Rhizopus it was 25 µg/mL (≈ 82.7 µM); with Aspergillus flavus it was 50 µg/mL (≈ 165 µM); against Staphylococcus aureus it was 100 µg/mL (≈ 331 µM); in the experiment on Escherichia coli, 50 µg/mL (≈ 165 µM); against Aspergillus niger it was 25 µg/mL (≈ 82.7 µM). The same compound showed an MIC with Pseudomonas aeruginosa of 100 µg/mL (≈ 331 µM).
For the compound `CC(C)C1/C(=N\O)CC(c2ccco2)N(C=O)C1c1ccco1` (centres undefined), the MIC with Klebsiella pneumoniae was 25 µg/mL (≈ 79 µM); in the experiment with Rhizopus it was 50 µg/mL (≈ 158 µM); with Aspergillus flavus, 12.5 µg/mL (≈ 39.5 µM); in the experiment with Staphylococcus aureus, 50 µg/mL (≈ 158 µM); against Escherichia coli it was 25 µg/mL (≈ 79 µM); in the experiment with Aspergillus niger, 12.5 µg/mL (≈ 39.5 µM). Besides, 50 µg/mL (≈ 158 µM) was the least that counted as inhibitory against Pseudomonas aeruginosa (MIC).
For `O=CN1C(c2ccco2)C/C(=N/O)C(Cc2ccccc2)C1c1ccco1` (centres undefined), the MIC against Klebsiella pneumoniae is 25 µg/mL (≈ 68.6 µM); against Rhizopus it was 50 µg/mL (≈ 137 µM); against Aspergillus flavus it was 25 µg/mL (≈ 68.6 µM); against Staphylococcus aureus it was 25 µg/mL (≈ 68.6 µM); against Escherichia coli it was 25 µg/mL (≈ 68.6 µM); with Aspergillus niger, 25 µg/mL (≈ 68.6 µM). Moreover, in the experiment with Pseudomonas aeruginosa, the MIC was determined as 25 µg/mL (≈ 68.6 µM).
On to `C[C@@H]1[C@H](O)[C@@H](C)/C=C/C=C/C=C/C=C/C=C/C=C/C=C/[C@H](O[C@@H]2O[C@H](C)[C@@H](O)[C@H](N)[C@@H]2O)C[C@@H]2O[C@](O)(C[C@@H](O)C[C@@H](O)[C@H](O)CC[C@@H](O)C[C@@H](O)CC(=O)O[C@H]1C)C[C@H](O)[C@H]2C(=O)O` [AMPHOTERICIN B], for which the MIC was 50 µg/mL (≈ 54.1 µM) in the experiment on Rhizopus, 25 µg/mL (≈ 27.1 µM) against Aspergillus flavus and 50 µg/mL (≈ 54.1 µM) against Aspergillus niger.
`O=C(O)c1cn(C2CC2)c2cc(N3CCNCC3)c(F)cc2c1=O` [CIPROFLOXACIN]: the MIC in the experiment with Staphylococcus aureus came out at 50 µg/mL (≈ 151 µM); against Escherichia coli, 25 µg/mL (≈ 75.4 µM); with Pseudomonas aeruginosa, 50 µg/mL (≈ 151 µM).
